Reference: patent US20070054353A1, “Nuclear receptor transcriptional corepressor and uses thereof” (priority 2002, published 2007)
One block for each compound: values may come before it. Where a SMILES comes first, the peptide text is derived from it. [ ]: non-standard residue; d: D form. Aoe = N[C@@H](CCCCCC(=O)[C@@H]1CO1)C(=O)O

Experiments:
[1] = target: T1, interaction of LCoR and ERα (Homo sapiens, UniProt P03372); test: BRET assay of LCoR-ERα interaction in living COS-7 cells; format: cell-based; settings: 10^−7M ligand, COS-7 cells cotransfected with ERα-EYFP and LCoR-rluc
T1 construct: expressed in transfected cells; host or cells: COS-7
T1 sequence (P03372 1-595): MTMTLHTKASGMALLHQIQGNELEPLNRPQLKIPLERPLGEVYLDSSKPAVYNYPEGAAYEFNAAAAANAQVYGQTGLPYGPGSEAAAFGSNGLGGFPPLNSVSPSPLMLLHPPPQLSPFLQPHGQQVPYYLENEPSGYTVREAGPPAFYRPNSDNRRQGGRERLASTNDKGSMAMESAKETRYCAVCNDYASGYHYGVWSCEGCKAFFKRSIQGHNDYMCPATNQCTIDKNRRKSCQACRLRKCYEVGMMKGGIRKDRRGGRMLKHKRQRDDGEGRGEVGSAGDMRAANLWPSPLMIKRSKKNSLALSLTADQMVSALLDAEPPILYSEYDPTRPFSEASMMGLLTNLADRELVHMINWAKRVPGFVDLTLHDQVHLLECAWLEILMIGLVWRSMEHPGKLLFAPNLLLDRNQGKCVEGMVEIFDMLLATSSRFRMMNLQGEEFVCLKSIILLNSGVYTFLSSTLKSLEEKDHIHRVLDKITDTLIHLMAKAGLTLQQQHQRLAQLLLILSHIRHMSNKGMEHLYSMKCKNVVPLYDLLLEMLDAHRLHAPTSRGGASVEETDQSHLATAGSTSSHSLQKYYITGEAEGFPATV
Experimental: Readings were started immediately after coelenterazine H addition, and 10 repeated measures were taken.
Interaction of ERα and LCoR in vivo was further tested by bioluminescence resonance energy transfer (BRET) in living COS-7 cells transiently cotransfected with plasmids expressing ERα-EYFP and LCoR-rluc fusion proteins. […] BRET ratios were calculated as described in experimental procedures.

ERα LBD = target: T2, ERα LBD (Homo sapiens, UniProt P03372); test: GST pull-down of in vitro translated LCoR with GST-ERα LBD; format: binding; settings: ligand added to 10^−6 M
T2 construct: the ERα LBD fused to GST (GST-ERα-LBD); made in house; LCoR by in vitro translation
T2 sequence (P03372 311-547 limits assumed): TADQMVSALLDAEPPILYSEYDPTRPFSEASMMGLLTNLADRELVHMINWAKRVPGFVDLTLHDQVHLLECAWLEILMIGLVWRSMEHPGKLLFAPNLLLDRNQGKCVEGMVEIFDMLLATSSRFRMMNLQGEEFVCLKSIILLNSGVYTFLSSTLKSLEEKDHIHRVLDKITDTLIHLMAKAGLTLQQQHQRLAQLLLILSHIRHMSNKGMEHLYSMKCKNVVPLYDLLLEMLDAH

CtBP1 = target: T3, CtBP1 (Homo sapiens, UniProt Q13363); test: GST pull-down of in vitro translated CtBP1 with GST-LCoR; format: binding
T3 construct: made in house; host or cells: CtBP1 by in vitro translation
Experimental: GST pull-down assays were performed as described (Eng, F.C.S. et al. (1998) J. Biol. Chem., 273, 28371-7), with the exception that assays performed with in vitro translated ER378 included two more washes made with the GST buffer containing 150 mM NaCl. For immunoprecipitations of tagged proteins, COS-7 cells in 100 mm dishes were transfected with 6 μg of HA-LCOR and/or 6 μg of HA-Flag-HDAC6 or with 6 μg of Flag-LCoR and/or 6 μg of HA-HDAC3 and pSG5 carrier. 48 h after transfection, cells were lysed 30 min at […] in 1 ml of JLB (20 mM Tris-HCl, pH8, 150 mM KCl, 10% glycerol, 0.1% IGEPAL CA-630, and complete protease inhibitor cocktail; Boehringer-Mannheim, Laval, Qc). Cell debris were pelleted by centrifugation (14,000 rpm, 5 min), and proteins immunoprecipitated from 600 μl of supernatant by incubation for 1 h at 4° C. with 4 μg of α-Flag M2 antibody or polyclonal anti-HDAC3, followed by overnight incubation with protein A+G agarose or protein-A agarose beads for anti-Flag, and anti-HDAC3, respectively. Beads were washed (3×) with JLB. Bound immunocomplexes were boiled in Laemmli buffer, separated by 10% SDS/PAGE, and blotted on PVDF membrane with α-Flag M2-peroxidase, α-HDAC3, α-HA-peroxidase (1:500), and detected by enhanced chemiluminescence (NEN Life Science Products, Boston, Mass.). […]

HDAC6 = test: ERα-dependent CAT reporter with LCoR and HDAC6 cotransfection in MCF-7 cells; format: cell-based, human; settings: estradiol 10 nM, TSA 500 nM, trapoxin 50 nM
Experimental: All cells were cultured under the recommended conditions. For immunocytochemistry, COS-7 cells grown on collagen IV-treated microscope slides in 6-well plates in DMEM, supplemented with 10% FBS were transfected in medium without serum with 12.5 μl of lipofectamine 2000 (Invitrogen, Burlington, Ont.) containing 1 μg each of pSG5/LCoR and HA-Flag-HDAC6/pcDNA3. Medium was replaced 24 h after transfection and cells were prepared for immunocytochemistry after 48 h as described below. For immunoprecipitation of tagged proteins, MCF-7 cells in 100 mm dishes were transfected with 10 μl of lipofectamine containing 10 μg of pSG5 vectors containing Flag-LCoR, Flag-m1, Flag-m2 or Flag-m1+2. For analysis of the effects of HDACs 3 or 6 on LCoR corepression, COS-7 cells (60-70% confluent) grown in DMEM without phenol red, supplemented with 10% FBS on 6-well plates were transfected in medium without serum with lipofectamine 2000 (Invitrogen, Burlington, Ontario, Canada) with 100 ng of ERα expression vectors as indicated, 300 ng of LCoR/pSG5, 300 ng of HA-HDAC3/pCDNA3.1 or […], 250 ng of ERE3-TATA-CAT reporter plasmid, 250 ng of internal control vector pCMV-βgal, and pBluescript carrier DNA to 4 μg. Medium was replaced 18 hr after transfection by a medium containing charcoal-stripped serum and ligand (10 nM) for 30 hr, as indicated. […]

effect on BRET ratio [1]: no significant effect
induction of interaction of LCoR with ERα (ERα LBD): did not induce interaction
Compound: 4-hydroxytamoxifen

effect on interaction of CtBP1 with LCoR in vitro (CtBP1): no effect
Compound: NC(=O)C1=CN([C@@H]2O[C@H](COP(=O)(O)OP(=O)(O)OC[C@H]3O[C@@H](n4cnc5c(N)ncnc54)[C@H](O)[C@@H]3O)[C@@H](O)[C@H]2O)C=CC1 [NADH]

Compound: O=C1N[C@@H](Cc2ccccc2)C(=O)N2CCC[C@@H]2C(=O)N[C@@H](CCCCCC(=O)[C@@H]2CO2)C(=O)N[C@H]1Cc1ccccc1 [trapoxin] (cyclo(FF[dP][Aoe]))
effect on HDAC6 repression / enhancement of LCoR corepression of ERα transactivation (HDAC6): not
